This is an account of results in article PMC10333884, “Large‐scale phosphomimetic screening identifies phospho‐modulated motif‐based protein interactions” (Molecular Systems Biology, 2023).

Assay [1] deals with T1, AP2 μ2 (Homo sapiens, UniProt Q96CW1).
T1 construct: AP2_Mu__Q96CW1_160_435; GST (cleaved yes); made in house; host or cells: Escherichia coli BL21-Gold(DE3)
T1 sequence (Q96CW1 160-435): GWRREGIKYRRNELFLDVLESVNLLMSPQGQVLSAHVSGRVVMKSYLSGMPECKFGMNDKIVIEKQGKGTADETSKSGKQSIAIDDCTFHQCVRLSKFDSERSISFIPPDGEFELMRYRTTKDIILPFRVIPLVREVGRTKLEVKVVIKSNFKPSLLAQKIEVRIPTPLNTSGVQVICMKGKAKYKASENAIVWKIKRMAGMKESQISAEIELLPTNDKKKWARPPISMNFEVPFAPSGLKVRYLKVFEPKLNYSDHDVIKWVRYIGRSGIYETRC
The assay can be described thus: FP displacement assay, AP2 μ2. The assay is classed as binding. To be noted: probe FITC-ATG9A 5 nM, 50 mM sodium phosphate pH 7.4, room temperature, at least three technical replicates, read-out: KD values ± SEM. The protocol: (§1) FP experiments were performed as described previously (Kliche et al, [2021]). Shortly, in order to monitor the binding event, FITC‐labelled peptides were used (excitation 495 nm, emission: 535 nm) and the FP signal was recorded in mP on a SpectraMax iD5 Multi‐Mode Microplate Reader (Molecular Devices) by measuring the emitted light in two angels. The measurements were performed at room temperature and prepared in nonbinding black half area 96‐well microplates (Corning®; 50 μl/well). For measuring direct binding, that is saturation curves, a 1:1 dilution series of protein domain (25 μl/well) was generated in 50 mM sodium phosphate buffer pH 7.4 and the measurement performed with 5 nM FITC‐labelled peptide (25 μl/well). The buffer‐corrected values were subsequently plotted with PRISM and fitted to the quadratic equation (Gianni et al, [2005]).
(§2) The 1:1 dilution series in this experiment was performed with the unlabelled peptide in 50 mM sodium phosphate buffer pH 7.4, so that each well‐contained unlabelled peptide (25 μl) at a certain concentration and pre‐formed complex (25 μl). The KD values of this indirectly monitored binding event were calculated as described previously (Nikolovska‐Coleska et al, [2004]). All measurements were at least in technical triplicates as well as biological duplicates when indicated. An amplitude shift between repeat measurements in the displacement experiments was occasionally observed due to variations in the protein preparations. If that was the case, the “active” protein concentration was back‐calculated according to the quadratic equation from the saturation curves performed in parallel. By comparing the active protein concentrations in the complex between different protein preparations, the amplitude was normalised.

In assay [2] the target is T1, AP2 μ2. Description: Phosphomimetic ProP-PD selection, AP2 μ2. To be noted: phosphomimetic enrichment score of the wild-type/phosphomimetic (E) pair at the phosphosite, PM_HD2 phage selection, all overlapping peptides and replicates; positive = phosphomimetic enhances binding; P-value in brackets not taken. The method, then:
(§3) Selections using the PM_HD2 phage library were performed as described previously with minor modification to the original protocol. The corresponding tag protein (either GST or MBP) was first used during negative selections. Selections were run for 4 days. • Bait and tag proteins (10–15 μg in 100 μl PBS) were immobilised in 96‐well MaxiSorb plate (NUNC) o.n. at 4°C. • Escherichia coli OmniMax bacteria were grown in 2YT medium supplemented with tetracycline (100 μg/ml) at 37°C and 200 rpm. • Plates with immobilised bait/tag proteins were blocked with 0.5% BSA in PBS for 1 h at 4°C. • Phage library (10 μl/well) was prepared by diluting 10× with PBS and adding one‐fourth of the volume of PEG/NaCl. For phage precipitation, prepared library was incubated for 10 min on ice followed by centrifugation for 10 min at 10,000 × g at 4°C. […]
(§4) Based on the results from phage pool ELISAs, samples from selection Day 3 and 4 were selected for NGS, as described previously (Benz et al, [2022]). • Peptide coding regions were amplified and dual‐barcoded by PCR. […] From the columns, samples were eluted with 30 μl TE (10 mM Tris–HCl, 1 mM EDTA. pH 7.5) buffer and quantified with Quant‐iT PicoGreen dsDNA Assay Kit. • Samples were sequenced on MiSeq (MSC 2.5.0.5/RTA 1.18.54) with a 151 nt (Read1) setup using “Version3” chemistry. […]

The target of assay [3] is T2, MAP1LC3B ATG8 (Homo sapiens, UniProt Q9GZQ8).
T2 construct: MAP1LC3B ATG8; made in house; host or cells: Escherichia coli BL21-Gold(DE3)
The assay can be described thus: FP saturation experiment, MAP1LC3B ATG8. To be noted: FP saturation (direct binding), 5 nM FITC-labelled peptide, 50 mM sodium phosphate pH 7.4, room temperature; at least technical triplicates; reference for probe peptide PMID: 33436498; read-out: KD [µM] + SE. The protocol: as §1

Assay [4] has as its target T3, GABARAPL2 ATG8 (Homo sapiens, UniProt P60520).
T3 construct: GABARAPL2_ATG8__P60520_2_115; GST (cleaved yes); made in house; host or cells: Escherichia coli BL21-Gold(DE3)
Description: FP saturation experiment, GABARAPL2 ATG8. To be noted: FP saturation (direct binding), 5 nM FITC-labelled peptide, 50 mM sodium phosphate pH 7.4, room temperature; at least technical triplicates; reference for probe peptide PMID: 33436498; read-out: KD [µM] + SE. The protocol:
as §1

The target of assay [5] is T4, SNX27 PDZ (Homo sapiens, UniProt Q96L92).
T4 construct: SNX27_PDZ__Q96L92_40_141; made in house; host or cells: Escherichia coli BL21-Gold(DE3)
Description: FP displacement assay, SNX27 PDZ (MBP-tagged). In kind it is binding. To be noted: for Kd: MBP-tagged domain, probe FITC-SYT16 5 nM, 50 mM sodium phosphate pH 7.4, room temperature, at least three technical replicates, read-out: KD values ± SEM. The protocol: (§5) For FP, ITC and crystallisation, the tag was removed with the appropriate protease either on beads (0.1 mg/ml thrombin (Cytiva) in PBS, 1 mM dithiothreitol (DTT)) or by dialysis in cleavage buffer (Human Rhinovirus (HRV) 3C protease: 50 mM Tris–HCl pH 7.4, 150 mM NaCl, 1 mM β‐mercaptoethanol), both procedures were overnight. In case of HRV protease cleavage, the tag was separated from the target protein domain by reverse ion metal affinity chromatography using Ni^2+ beads for purification, whereas thrombin was removed using a benzamidine column (Cytiva). Affinity measurements for SNX27 PDZ were performed on the MBP‐tagged construct, as well as PIN1 WW domain on the GST‐tagged construct. For FP and ITC, proteins were dialysed in 50 mM sodium phosphate buffer pH 7.4, 1 mM DTT. For crystallisation of the NTD of clathrin, the protein was further purified by a S200 Sepharose column (Cytiva) using 20 mM Tris–HCl pH 7.4, 150 mM NaCl and 1 mM DTT.
as §1, §2

For assay [6], the target named is T4, SNX27 PDZ. Description: Phosphomimetic ProP-PD selection, SNX27 PDZ. To be noted: phosphomimetic enrichment score of the wild-type/phosphomimetic (E) pair at the phosphosite, PM_HD2 phage selection; positive = phosphomimetic enhances binding; P-value in brackets not taken. The method, then:
as §3, §4

In assay [7] the test system is PIN1 WW domain. Description: FP displacement assay, PIN1 WW domain (GST-tagged). The assay is classed as binding, human. To be noted: probe FITC-SMAD3, technical triplicates. The protocol: as §5
FP experiments were performed as described previously (Kliche et al, [2021]). Shortly, in order to monitor the binding event, FITC‐labelled peptides were used (excitation 495 nm, emission: 535 nm) and the FP signal was recorded in mP on a SpectraMax iD5 Multi‐Mode Microplate Reader (Molecular Devices) by measuring the emitted light in two angels. […]

Residues, ends and D or L forms follow the SMILES beside them.

T3 sequence (P60520 2-115): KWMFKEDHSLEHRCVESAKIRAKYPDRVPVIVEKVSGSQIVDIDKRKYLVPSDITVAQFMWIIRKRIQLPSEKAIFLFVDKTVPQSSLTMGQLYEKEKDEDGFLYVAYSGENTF

On to `CC[C@H](C)[C@H](NC(=O)[C@@H](NC(=O)[C@@H]1CCCN1C(=O)[C@H](CCC(=O)O)NC(=O)[C@H](CO)NC(=O)[C@H](C)NC(=O)[C@@H]1CCCN1C(=O)[C@H](CCSC)NC(=O)[C@@H]1CCCN1C(=O)[C@H](CCC(N)=O)NC(=O)[C@H](Cc1ccc(O)cc1)NC(=O)[C@@H]1CCCN1C(=O)[C@@H](NC(=O)[C@@H](NC(=O)[C@H](CCSC)NC(C)=O)[C@@H](C)O)[C@@H](C)CC)C(C)C)C(=O)N[C@@H](CS)C(N)=O` [PCBP1_179–194 E] (Ac-MTIPYQPMPASEPVIC-NH2), for which the Kd in assay [1] is 2050 ± 90 nM. Also, the PES in assay [2] was 1 (0.15).

`CC(C)C[C@H](NC(=O)[C@H](Cc1c[nH]cn1)NC(=O)[C@@H](NC(=O)[C@H](Cc1c[nH]c2ccccc12)NC(=O)[C@H](CC(=O)O)NC(=O)[C@H](CC(=O)O)NC(=O)[C@H](CC(=O)O)NC(=S)Nc1ccc2c(c1)C(=O)OC21c2ccc(O)cc2Oc2cc(O)ccc21)[C@@H](C)O)C(=O)N[C@@H](CO)C(=O)N[C@@H](CO)C(=O)N[C@@H](CCCCN)C(N)=O` [FITC-SQSTM1]: the dissociation constant (Kd) in assay [3] was 2.5 ± 0.2 µM; in assay [4] it was 11 ± 1 µM.

As for `CC(=O)N[C@@H](Cc1ccccc1)C(=O)N1CCC[C@H]1C(=O)N[C@@H](CO)C(=O)N[C@@H](CCC(=O)O)C(=O)N[C@@H](Cc1ccc(O)cc1)C(=O)N[C@H](C(=O)N[C@@H](CCCCN)C(=O)N[C@@H](CC(C)C)C(=O)N[C@@H](CC(C)C)C(=O)N[C@@H](CCC(=O)O)C(=O)N[C@@H](CCC(=O)O)C(=O)N[C@@H](CC(N)=O)C(=O)N[C@@H](CCC(=O)O)C(=O)N[C@H](C(=O)N[C@@H](CCC(=O)O)C(=O)N[C@@H](C)C(N)=O)[C@@H](C)O)[C@@H](C)O` [BAIAPL1_392–407 E] (Ac-FPSEYTKLLEENETEA-NH2), in assay [1], the Kd was 490 ± 80 nM. The PES in assay [2] is 1.2 (0.095).

As to `CC(=O)N[C@@H](CC(N)=O)C(=O)N[C@@H](CC(C)C)C(=O)N[C@@H](CC(C)C)C(=O)N[C@@H](CC(C)C)C(=O)N[C@@H](CCC(=O)O)C(=O)N[C@@H](CCCNC(=N)N)C(=O)N[C@@H](CC(=O)O)C(=O)N[C@H](C(=O)N[C@@H](CCC(=O)O)C(=O)N[C@@H](Cc1ccccc1)C(=O)N[C@H](C(=O)N[C@H](C(=O)N[C@@H](C)C(=O)N1CCC[C@H]1C(=O)N[C@@H](CC(=O)O)C(=O)N[C@@H](Cc1ccc(O)cc1)C(N)=O)C(C)C)[C@@H](C)O)[C@@H](C)O` [CDC25C30–44 E] (Ac-NLLLERDTEFTVAPDY-NH2), the Kd in assay [5] worked out at 680 ± 40 µM. Besides, in assay [6], the PES is recorded as −6 (0.00063).

Turning to “H3COC-MSETQSS(pS/E)PTKGVLMY-NH2 [PIAS2_493–507 wt, wild-type PIAS2 493-507 peptide]”, the “binding in FP displacement experiment” value in assay [7] is reported as “none of the peptides tested”.

Regarding `CSCC[C@H](NC(=O)CNC(C)=O)C(=O)N[C@H](C(=O)N[C@@H](CO)C(=O)N[C@@H](CCC(=O)O)C(=O)N[C@H](C(=O)N[C@@H](CO)C(=O)N[C@@H](Cc1ccccc1)C(=O)N[C@@H](CC(N)=O)C(=O)NCC(=O)NCC(=O)N[C@@H](Cc1ccc(O)cc1)C(N)=O)[C@@H](C)O)C(C)C` [DAXX606–616 E] (Ac-GMVSETSFNGGY-NH2), in assay [5] (Fig 4B, SNX27 PDZ, technical triplicates, read-out: IC50 values of displacement curves, with SEM), the IC50 came out at 117 ± 25 µM. Moreover, the Kd in assay [5] came out at 23 ± 4 µM. For the same compound, the PES in assay [6] was 6 (0.00063).

As usually defined, the Kd is a measure of binding affinity in units of concentration. What is called IC50 is the midpoint of a concentration-inhibition curve.
